In patent US20130269064A1, “INSECTICIDAL COMPOUNDS” (SYNGENTA PARTICIPATIONS AG, priority 2010, published 2013):

Assays:
Assay type in all cases: in vivo
Heliothis virescens = Heliothis virescens (tobacco budworm) egg/artificial diet test; conditions: 96 h, 200 ppm (concentration in well 18 ppm), eggs 0-24 h old on artificial diet, 4 days, egg mortality, larval mortality, growth regulation
Method: Heliothis virescens (Tobacco Budworm): Eggs (0-24 h old) were placed in 24-well microtiter plate on artificial diet and treated with test solutions at an application rate of 200 ppm (concentration in well 18 ppm) by pipetting. After an incubation period of 4 days, samples were checked for egg mortality, larval mortality and growth regulation.

Spodoptera littoralis = Spodoptera littoralis (Egyptian cotton leafworm) cotton leaf disc test; conditions: foliar, 72 h, 200 ppm sprayed on cotton leaf discs, 5 L1 larvae, mortality, feeding behaviour, growth regulation 3 DAT
Excerpt: Spodoptera littoralis (Egyptian Cotton Leafworm): Cotton leaf discs were placed on agar in a 24-well microtiter plate and sprayed with test solutions at an application rate of 200 ppm. After drying, the leaf discs were infested with 5 L1 larvae. The samples were checked for mortality, feeding behaviour, and growth regulation 3 days after treatment (DAT).

Plutella xylostella = Plutella xylostella (diamond back moth) artificial diet test; conditions: 144 h, 200 ppm (concentration in well 18 ppm), L2 larvae, 6 days, larval mortality and growth regulation
Method: (§1) Plutella xylostella (Diamond Back Moth): A 24-well microtiter plate (MTP) with artificial diet was treated with test solutions at an application rate of 200 ppm (concentration in well 18 ppm) by pipetting. After drying, the MTP's were infested with L2 larvae (7-12 per well). After an incubation period of 6 days, samples were checked for larval mortality and growth regulation.

Diabrotica balteata = Diabrotica balteata (corn root worm) artificial diet test; conditions: 120 h, 200 ppm (concentration in well 18 ppm), L2 larvae, 5 days, larval mortality and growth regulation
Method: as §1, with “Diabrotica balteata (Corn Root Worm):” for “Plutella xylostella (Diamond Back Moth):”, “with” for “with L2”, “(L2) (6-10” for “(7-12”, “5” for “6”, “mortality,” for “mortality”

Tetranychus urticae = Tetranychus urticae (two-spotted spider mite) bean leaf disc test; conditions: foliar, 192 h, 200 ppm sprayed on bean leaf discs, mixed ages, 8 days, egg, larval and adult mortality
Excerpt: Tetranychus urticae (Two-Spotted Spider Mite): Bean leaf discs on agar in 24-well microtiter plates were sprayed with test solutions at an application rate of 200 ppm. After drying, the leaf discs are infested with mite populations of mixed ages. 8 days later, discs are checked for egg mortality, larval mortality, and adult mortality.

Measured: pest or weed control at 200 ppm

Cn1nc(C(F)(F)C(F)(F)F)c(C(F)(F)F)c1NC(=O)c1cccc(NC(=O)c2ccccc2F)c1F [Compound B1]
not listed: Tetranychus urticae
≥ 80%: all other assays above

Cn1nc(C(F)(F)C(F)(F)F)c(C(F)(F)F)c1NC(=O)c1cccc(NC(=O)c2ccccc2Cl)c1F [Compound B3]
not listed: Tetranychus urticae
≥ 80%: all other assays above

Cn1nc(C(F)(F)C(F)(F)F)c(C(F)(F)F)c1NC(=O)c1cccc(NC(=O)c2ccc(C#N)cc2)c1F [Compound B4]
≥ 80%: all assays above

Cn1nc(C(F)(F)C(F)(F)F)c(C(F)(F)F)c1NC(=O)c1cccc(NC(=O)c2ccc([N+](=O)[O-])cc2)c1F [Compound B5]
≥ 80%: all assays above

Cc1ccc(C(=O)Nc2cccc(C(=O)Nc3c(C(F)(F)F)c(C(F)(F)C(F)(F)F)nn3C)c2F)cc1 [Compound B6]
not listed: Tetranychus urticae
≥ 80%: all other assays above

Cn1nc(C(F)(F)C(F)(F)F)c(C(F)(F)F)c1NC(=O)c1cccc(NC(=O)c2ccc(F)cc2)c1F [Compound B17]
≥ 80%: all assays above

Cn1nc(C(F)(F)C(F)(F)F)c(C(F)(F)F)c1NC(=O)c1cccc(NC(=O)c2cccc(F)c2F)c1F [Compound B21]
not listed: Tetranychus urticae
≥ 80%: all other assays above

Cn1nc(C(F)(F)C(F)(F)F)c(C(F)(F)F)c1NC(=O)c1cccc(NC(=O)c2ccc(F)cc2F)c1F [Compound B22]
not listed: Tetranychus urticae
≥ 80%: all other assays above

Cc1ccccc1C(=O)Nc1cccc(C(=O)Nc2c(C(F)(F)F)c(C(F)(F)C(F)(F)F)nn2C)c1 [Compound D2]
not listed: Tetranychus urticae
≥ 80%: all other assays above

Cn1nc(C(F)(F)C(F)(F)F)c(C(F)(F)F)c1NC(=O)c1cccc(NC(=O)c2ccc(C#N)cc2)c1 [Compound D4]
≥ 80%: Tetranychus urticae | Diabrotica balteata

Cn1nc(C(F)(F)C(F)(F)F)c(C(F)(F)F)c1NC(=O)c1cccc(NC(=O)c2ccc([N+](=O)[O-])cc2)c1 [Compound D5]
not listed: Tetranychus urticae
≥ 80%: all other assays above

Cc1cc(F)ccc1C(=O)Nc1cccc(C(=O)Nc2c(C(F)(F)F)c(C(F)(F)C(F)(F)F)nn2C)c1 [Compound D7]
≥ 80%: all assays above

Cn1nc(C(F)(F)C(F)(F)F)c(C(F)(F)F)c1NC(=O)c1cccc(NC(=O)c2ccc(OC(F)(F)F)cc2)c1 [Compound D11]
not listed: Tetranychus urticae
≥ 80%: all other assays above

Cn1nc(C(F)(F)C(F)(F)F)c(C(F)(F)F)c1NC(=O)c1cccc(NC(=O)c2ccc(F)c(C(F)(F)F)c2)c1 [Compound D12]
≥ 80%: Heliothis virescens | Diabrotica balteata

Cn1nc(C(F)(F)C(F)(F)F)c(C(F)(F)F)c1NC(=O)c1cccc(NC(=O)c2ccccc2OC(F)(F)F)c1 [Compound D14]
≥ 80%: Diabrotica balteata

Cn1nc(C(F)(F)C(F)(F)F)c(C(F)(F)F)c1NC(=O)c1cccc(NC(=O)c2ccccc2C(F)(F)F)c1 [Compound D18]
≥ 80%: Heliothis virescens | Spodoptera littoralis | Diabrotica balteata

Cn1nc(C(F)(F)C(F)(F)F)c(C(F)(F)F)c1NC(=O)c1cccc(NC(=O)c2cc(C(F)(F)F)ccc2F)c1 [Compound D23]
≥ 80%: Heliothis virescens | Spodoptera littoralis | Diabrotica balteata

Cc1cc(C#N)ccc1C(=O)Nc1cccc(C(=O)Nc2c(C(F)(F)F)c(C(F)(F)C(F)(F)F)nn2C)c1 [Compound D24]
not listed: Heliothis virescens
≥ 80%: all other assays above

Cc1ccccc1C(=O)Nc1cc(C(=O)Nc2c(C(F)(F)F)c(C(F)(F)C(F)(F)F)nn2C)ccc1Cl [Compound E2]
≥ 80%: Spodoptera littoralis

Cn1nc(C(F)(F)C(F)(F)F)c(C(F)(F)F)c1NC(=O)c1ccc(Cl)c(NC(=O)c2ccccc2Cl)c1 [Compound E3]
not listed: Tetranychus urticae
≥ 80%: all other assays above

Cn1nc(C(F)(F)C(F)(F)F)c(C(F)(F)F)c1NC(=O)c1ccc(Cl)c(NC(=O)c2ccc(C#N)cc2)c1 [Compound E4]
not listed: Tetranychus urticae
≥ 80%: all other assays above

Cn1nc(C(F)(F)C(F)(F)F)c(C(F)(F)F)c1NC(=O)c1ccc(Cl)c(NC(=O)c2ccc([N+](=O)[O-])cc2)c1 [Compound E5]
≥ 80%: Heliothis virescens | Plutella xylostella | Diabrotica balteata

Cc1cc(F)ccc1C(=O)Nc1cc(C(=O)Nc2c(C(F)(F)F)c(C(F)(F)C(F)(F)F)nn2C)ccc1Cl [Compound E7]
≥ 80%: all assays above

Cn1nc(C(F)(F)C(F)(F)F)c(C(F)(F)F)c1NC(=O)c1ccc(Cl)c(NC(=O)c2ccc([N+](=O)[O-])cc2Cl)c1 [Compound E9]
≥ 80%: Tetranychus urticae | Diabrotica balteata

Cn1nc(C(F)(F)C(F)(F)F)c(C(F)(F)F)c1NC(=O)c1ccc(Cl)c(NC(=O)c2ccc(F)c(C(F)(F)F)c2)c1 [Compound E12]
≥ 80%: Diabrotica balteata

Cn1nc(C(F)(F)C(F)(F)F)c(C(F)(F)F)c1NC(=O)c1ccc(Cl)c(NC(=O)c2ccc(C(F)(F)F)cc2)c1 [Compound E13]
≥ 80%: Heliothis virescens | Diabrotica balteata

Cn1nc(C(F)(F)C(F)(F)F)c(C(F)(F)F)c1NC(=O)c1ccc(Cl)c(NC(=O)c2ccccc2)c1 [Compound E16]
not listed: Tetranychus urticae
≥ 80%: all other assays above

Cn1nc(C(F)(F)C(F)(F)F)c(C(F)(F)F)c1NC(=O)c1ccc(Cl)c(NC(=O)c2ccc(F)cc2)c1 [Compound E17]
not listed: Tetranychus urticae
≥ 80%: all other assays above

Cn1nc(C(F)(F)C(F)(F)F)c(C(F)(F)F)c1NC(=O)c1ccc(Cl)c(NC(=O)c2ccccc2C(F)(F)F)c1 [Compound E18]
≥ 80%: Diabrotica balteata

Cn1nc(C(F)(F)C(F)(F)F)c(C(F)(F)F)c1NC(=O)c1ccc(Cl)c(NC(=O)c2ccc(F)cc2Cl)c1 [Compound E19]
≥ 80%: all assays above

Cn1nc(C(F)(F)C(F)(F)F)c(C(F)(F)F)c1NC(=O)c1ccc(Cl)c(NC(=O)c2cccc(F)c2F)c1 [Compound E21]
≥ 80%: Heliothis virescens | Diabrotica balteata

Cc1cc(C#N)ccc1C(=O)Nc1cc(C(=O)Nc2c(C(F)(F)F)c(C(F)(F)C(F)(F)F)nn2C)ccc1Cl [Compound E24]
≥ 80%: all assays above

Cc1cc(C#N)ccc1C(=O)Nc1nc(C(=O)Nc2c(C(F)(F)F)c(C(F)(F)C(F)(F)F)nn2C)ccc1C#N [Compound F1]
≥ 80%: Spodoptera littoralis

Cn1nc(C(F)(F)C(F)(F)F)c(C(F)(F)F)c1NC(=O)c1ccc(C#N)c(NC(=O)c2ccncc2)n1 [Compound F2]
not listed: Spodoptera littoralis
≥ 80%: all other assays above
